# Reference: the supplement of paper PMC10307832
# What was measured:
# Assay in all cases: relative viability (nuclei count vs DMSO), 5 days (fraction); higher = more cells survive
# [1] = compound: CC1=C(C(=NN1)C)CC2=C(C3=C(S2)N(C(=O)N(C3=O)C)CC(C)C)C(=O)N4C[C@@H](CO4)O + Nc1ncn([C@H]2C[C@H](O)[C@@H](CO)O2)c(=O)n1 [Decitabine] (partner 2 µM)
# In short: (§1)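 Five library-drug doses in √10 steps were combined with a fixed anchor-drug dose, or a single drug was given alone, by pin tool to lung cancer cell lines in 1536-well plates the day after seeding. Nuclei were stained and counted after 5 days. Relative viability is the nuclei count in treated wells over that in vehicle wells, taken as the median of duplicate plates.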
# [2] = compound: CC1=C(C(=NN1)C)CC2=C(C3=C(S2)N(C(=O)N(C3=O)C)CC(C)C)C(=O)N4C[C@@H](CO4)O + CC(=O)Nc1cccc(-n2c(=O)n(C3CC3)c(=O)c3c(Nc4ccc(I)cc4F)n(C)c(=O)c(C)c32)c1 [Trametinib] (partner 0.02 µM)
# In short: as §1
# [3] = compound: CC1=C(C(=NN1)C)CC2=C(C3=C(S2)N(C(=O)N(C3=O)C)CC(C)C)C(=O)N4C[C@@H](CO4)O + N=C(N)NC(=N)NCCc1ccccc1 [Phenformin] (partner 250 µM)
# In short: as §1
# [4] = compound: Cc1ccccc1C(C(=O)NC1CCCCC1)N(C(=O)Cn1ccnc1C)c1cccc(F)c1 [IDH-C35] + CC1(C)CCC(c2ccc(Cl)cc2)=C(CN2CCN(c3ccc(C(=O)NS(=O)(=O)c4ccc(N[C@H](CCN5CCOCC5)CSc5ccccc5)c(S(=O)(=O)C(F)(F)F)c4)cc3)CC2)C1 [Navitoclax] (partner 0.5 µM)
# In short: as §1
Cell Line,relative viability ([1]; first compound 0.0025 µM),relative viability ([1]; first compound 0.007906 µM),relative viability ([1]; first compound 0.025 µM),relative viability ([1]; first compound 0.07906 µM),relative viability ([1]; first compound 0.25 µM),relative viability ([2]; first compound 0.0025 µM),relative viability ([2]; first compound 0.007906 µM),relative viability ([2]; first compound 0.025 µM),relative viability ([2]; first compound 0.07906 µM),relative viability ([2]; first compound 0.25 µM),relative viability ([3]; first compound 0.0025 µM),relative viability ([3]; first compound 0.007906 µM),relative viability ([3]; first compound 0.025 µM),relative viability ([3]; first compound 0.07906 µM),relative viability ([3]; first compound 0.25 µM),relative viability ([4]; first compound 0.08 µM),relative viability ([4]; first compound 0.253 µM),relative viability ([4]; first compound 0.8 µM),relative viability ([4]; first compound 2.53 µM),relative viability ([4]; first compound 8 µM)
NCI-H2170,0.495,0.514,0.462,0.441,0.481,0.909,0.966,0.956,0.756,0.94,0.377,0.384,0.432,0.378,0.378,0.626,0.535,0.595,0.479,0.627
NCI-H2347,0.638,0.649,0.608,0.56,0.662,0.269,0.313,0.301,0.274,0.265,0.455,0.429,0.295,0.275,0.264,0.766,0.765,0.801,0.851,0.742
NCI-H1993,0.59,0.523,0.607,0.595,0.536,0.627,0.0091,0.553,0.641,0.522,0.495,0.416,0.457,0.433,0.436,0.943,0.878,0.919,1.1,1.13
NCI-H322M,0.63,0.736,0.698,0.659,0.707,0.503,0.577,0.471,0.527,0.433,0.825,0.673,0.793,0.93,0.829,1.34,1.12,1.23,1.15,1.2
NCI-H838,0.447,0.489,0.43,0.455,0.444,0.498,0.569,0.393,0.452,0.505,0.567,0.594,0.433,0.453,0.489,1.15,1.11,1.19,1.15,1.11
HARA,0.578,0.578,0.653,0.581,0.524,1.14,0.991,0.759,0.662,0.782,0.365,0.378,0.309,0.234,0.246,1.08,1.14,1.14,1.12,1.14
NCI-H2087,0.315,0.28,0.274,0.295,0.248,0.248,0.202,0.213,0.201,0.208,0.45,0.474,0.395,0.471,0.447,1.13,1.02,0.896,0.867,0.999
